Assay results taken from US10952999B2, “Inhibitor of cyclin-dependent kinase CDK9” (GENFLEET THERAPEUTICS (SHANGHAI) INC., priority 2017, dated 2021).

Assays:
Assay in all cases: Cancer cell growth, Cell Titer-Glo cell viability assay, 72 hours
Format in all cases: cell-based
[1] = tested on: acute B cell leukemia cell line MEC-1; conditions: MEC-1, 72 hours
Text: (§1) In the examples, we used acute myelocytic leukemia (AML) OCI-AML-3, acute promyelocytic leukemia cell line NB-4, MDS-RAEB (myelodysplastic syndrome-excess blasts type) cell line SKM-1, human leukemia cell Nomo-1, acute myeloid leukemia cell line MOLM14, acute myeloid leukemia cell line MOLM13, acute myeloid leukemia cell line MV4-11, acute myeloid leukemia cell line HL-60, acute myeloid leukemia cell line OCI-AML-2, histiocytic lymphoma U-937, acute B cell leukemia cell line MEC-1, acute B cell leukemia cell line MEC-2, acute megakaryoblastic leukemia CMK, hamster lung cell CHL, hamster ovary cell CHO, human non-small cell lung cancer cell H1975, human non-small cell lung cancer cell H358, human small cell lung cancer cell H209, human lung adenocarcinoma cell H1395, human non-small cell lung cancer cell PC-9, human lung cancer cell H3122, human non-small cell lung cancer cell H2122, human non-small cell lung cancer cell H1915, human lung adenocarcinoma cell H1355, human non-small cell lung cancer cell HCC827, human breast cancer cell MDA-MB-231, human breast cancer cell MDA-MB-468, human breast cancer cell MCF-7, human breast cancer cell T47D, human breast cancer cell SK-Br-3, the above cells were purchased from ATCC.
(§2) Cell Titer-Glo® (Promega, USA) chemical self-luminescence cell viability assay kit was used to detect the number of viable cells by quantitatively measuring ATP in living cells, according to which to calculate GI50 and IC50.

[2] = tested on: acute myeloid leukemia cell line OCI-AML-2; conditions: OCI-AML2, 72 hours
Text: as §1, §2

[3] = tested on: acute myeloid leukemia cell line HL-60; conditions: HL-60, 72 hours
Text: as §1, §2

hamster ovary cell CHO = conditions: CHO, 72 hours
Text: as §1, §2

[4] = tested on: acute promyelocytic leukemia cell line NB-4; conditions: NB4, 72 hours
Text: as §1, §2

[5] = tested on: MDS-RAEB (myelodysplastic syndrome-excess blasts type) cell line SKM-1; conditions: SKM-1, 72 hours
Text: as §1, §2

[6] = tested on: human leukemia cell Nomo-1; conditions: Nomo-1, 72 hours
Text: as §1, §2

[7] = tested on: histiocytic lymphoma U-937; conditions: U-937, 72 hours
Text: as §1, §2

[8] = tested on: acute myeloid leukemia cell line MV4-11; conditions: MV4-11, 72 hours
Text: as §1, §2

[9] = tested on: acute B cell leukemia cell line MEC-2; conditions: MEC-2, 72 hours
Text: as §1, §2

[10] = tested on: acute myelocytic leukemia (AML) OCI-AML-3; conditions: OCI-AML3, 72 hours
Text: as §1, §2

[11] = tested on: acute myeloid leukemia cell line MOLM13; conditions: MOLM-13, 72 hours
Text: as §1, §2

[12] = tested on: acute megakaryoblastic leukemia CMK
Text: as §1, §2

[13] = tested on: acute myeloid leukemia cell line MOLM14; conditions: MOLM-14, 72 hours
Text: as §1, §2

hamster lung cell CHL = conditions: CHL, 72 hours
Text: as §1, §2

Structure (SMILES) | GI50 ([1]; Homo sapiens, MEC1) | GI50 ([2]; Homo sapiens) | GI50 ([3]; Homo sapiens) | GI50 [4] | GI50 ([5]; Homo sapiens) | GI50 ([6]; Homo sapiens) | GI50 ([7]; Homo sapiens) | GI50 ([8]; Homo sapiens) | GI50 ([9]; MEC2) | GI50 ([10]; Homo sapiens, OCI-AML-3) | GI50 ([11]; Homo sapiens) | GI50 [12] | GI50 ([13]; Homo sapiens) | GI50 (hamster lung cell CHL) | GI50 (hamster ovary cell CHO) | further results
N[C@H]1CC[C@H](Nc2cc(-c3csc(NCC4CCOCC4)n3)c(Cl)cn2)CC1 [Compound 2, (1r,4r)-N^1-(5-chloro-4-(2-(((tetrahydro-2H-pyran-4-yl)methyl)amino)thiazol-4-yl)pyridin-2-yl)cyclohexane-1,4-diamine] | 270 nM | 9100 nM | 550 nM | 56 nM | 85 nM | 590 nM | 120 nM | 140 nM | 140 nM | 140 nM | 150 nM | 370 nM | 140 nM | 3500 nM | 2800 nM | 
COC[C@H](C)N[C@H]1CC[C@H](Nc2cc(-c3csc(NCC4CCOCC4)n3)c(Cl)cn2)CC1 [Compound 5, (1S,4r)-N^1-(5-chloro-4-(2-(((tetrahydro-2H-pyran-4-yl)methyl)amino)thiazol-4-yl)pyridin-2-yl)-N^4-((S)-1-methoxypropan-2-yl)cyclohexane-1,4-diamine] | 1300 nM | 470 nM | 390 nM | 460 nM | 350 nM | 1000 nM | 430 nM | 440 nM | 770 nM | 820 nM | 640 nM | 1500 nM | 490 nM | 3600 nM | 1200 nM | 
COC[C@@H](C)N[C@H]1CC[C@H](Nc2cc(-c3csc(NCC4CCOCC4)n3)c(Cl)cn2)CC1 [Compound 6, (1R,4r)-N^1-(5-chloro-4-(2-(((tetrahydro-2H-pyran-4-yl)methyl)amino)thiazol-4-yl)pyridin-2-yl)-N^4-((R)-1-methoxypropan-2-yl)cyclohexane-1,4-diamine] | 310 nM | 120 nM | 65 nM | 110 nM | 97 nM | 290 nM | 110 nM | 140 nM | 130 nM | 150 nM | 130 nM | 350 nM | 110 nM | 1100 nM | 400 nM | 
O=C(Nc1cc(-c2csc(NCC3CCOCC3)n2)c(Cl)cn1)c1ccc(F)cc1 [Compound 8, N-(5-chloro-4-(2-(((tetrahydro-2H-pyran-4-yl)methyl)amino)thiazol-4-yl)pyridin-2-yl)-4-fluorobenzamide] | 3600 nM | 2900 nM | 310 nM | 220 nM | 150 nM | 1000 nM | 1400 nM | 550 nM | 830 nM | 720 nM | 200 nM | 150 nM | 530 nM | 930 nM | 1600 nM | 
CNc1nc(-c2cc(N[C@H]3CC[C@H](NCCOC)CC3)ncc2Cl)cs1 [Compound 9, (1r,4r)-N^1-(5-chloro-4-(2-(methylamino)thiazol-4-yl)pyridin-2-yl)-N^4-(2-methoxyethyl)cyclohexane-1,4-diamine] | 1400 nM | 650 nM | 420 nM | 700 nM | 750 nM | 1300 nM | 850 nM | 530 nM | 1100 nM | 1100 nM | 1000 nM | 1800 nM | 680 nM | 1900 nM | 1200 nM | 

Further lines, with some results ahead:

GI50 ([1]; Homo sapiens, MEC1) | GI50 ([2]; Homo sapiens) | GI50 ([3]; Homo sapiens) | GI50 [4] | GI50 ([5]; Homo sapiens) | GI50 ([6]; Homo sapiens) | GI50 ([7]; Homo sapiens) | GI50 ([8]; Homo sapiens) | GI50 ([9]; MEC2) | GI50 ([10]; Homo sapiens, OCI-AML-3) | GI50 ([11]; Homo sapiens) | GI50 [12] | GI50 ([13]; Homo sapiens) | GI50 (hamster lung cell CHL) | Structure (SMILES) | GI50 (hamster ovary cell CHO) | further results
850 nM | 600 nM | 410 nM | 490 nM | 330 nM | 600 nM | 340 nM | 1100 nM | 660 nM | 560 nM | 820 nM | 980 nM | 330 nM | 8000 nM | COCCN[C@H]1CC[C@H](Nc2cc(-c3csc(NCC4CCCCC4)n3)c(Cl)cn2)CC1 [Compound 10, (1r,4r)-N^1-(5-chloro-4-(2-((cyclohexylmethyl)amino)thiazol-4-yl)pyridin-2-yl)-N^4-(2-methoxyethyl)cyclohexane-1,4-diamine] | 780 nM | 
470 nM | 330 nM | 73 nM | 270 nM | 170 nM | 960 nM | 220 nM | 330 nM | 320 nM | 220 nM | 280 nM | 470 nM | 160 nM | 1000 nM | COCCN[C@H]1CC[C@H](Nc2cc(-c3csc(NCc4ccccc4)n3)c(Cl)cn2)CC1 [Compound 11, (1r,4r)-N^1-(4-(2-(benzylamino)thiazol-4-yl)-5-chloropyridin-2-yl)-N^4-(2-methoxyethyl)cyclohexane-1,4-diamine] | 370 nM | 
450 nM | 410 nM | 190 nM | 410 nM | 200 nM | 920 nM | 390 nM | 880 nM | 480 nM | 390 nM | 290 nM | 720 nM | 310 nM | 1100 nM | COCCN[C@H]1CC[C@H](Nc2cc(-c3csc(NCc4ccc(F)cc4)n3)c(Cl)cn2)CC1 [Compound 12, (1r,4r)-N^1-(5-chloro-4-(2-((4-fluorobenzyl)amino)thiazol-4-yl)pyridin-2-yl)-N^4-(2-methoxyethyl)cyclohexane-1,4-diamine] | 470 nM | 
890 nM | 600 nM | 320 nM | 340 nM | 260 nM | 870 nM | 320 nM | 740 nM | 660 nM | 420 nM | 440 nM | 1100 nM | 330 nM | 1400 nM | COCCN[C@H]1CC[C@H](Nc2cc(-c3csc(NCC4CC4)n3)c(Cl)cn2)CC1 [Compound 13, (1r,4r)-N^1-(5-chloro-4-(2-((cyclopropylmethyl)amino)thiazol-4-yl)pyridin-2-yl)-N^4-(2-methoxyethyl)cyclohexane-1,4-diamine] | 770 nM | 
1400 nM | 2100 nM | 450 nM | 580 nM | 500 nM | 1500 nM | 600 nM | 630 nM | 970 nM | 630 nM | 570 nM | 1400 nM | 620 nM | 3300 nM | COCCN[C@H]1CC[C@H](Nc2cc(-c3csc(OCC4CCOCC4)n3)c(Cl)cn2)CC1 [Compound 16, (1r,4r)-N^1-(5-chloro-4-(2-((tetrahydro-2H-pyran-4-yl)methoxy)thiazol-4-yl)pyridin-2-yl)-N^4-(2-methoxyethyl)cyclohexane-1,4-diamine] | 1300 nM | 
 |  |  | 350 nM |  |  |  |  |  |  |  | 1100 nM |  | 5600 nM | COCCN[C@H]1CC[C@H](Nc2cc(-c3csc(SCC4CCOCC4)n3)c(Cl)cn2)CC1 [Compound 17, (1r, 4r)-N^1-(5-chloro-4-(2-(((tetrahydro-2H-pyran-4-yl)methyl)mercapto)thiazol-4-yl)pyridin-2-yl)-N^4-(2-methoxyethyl)cyclohexane-1,4-diamine] | 610 nM | GI50 [1]: 800 nM; GI50 [2]: 800 nM; GI50 [3]: 160 nM; GI50 [5]: 330 nM; GI50 [6]: 930 nM; GI50 [7]: 300 nM; GI50 [8]: 1100 nM; GI50 [9]: 700 nM; GI50 [10]: 980 nM; GI50 [11]: 340 nM; GI50 [13]: 360 nM
